The target of assay [1] is SHP-2 enzyme (Met1-Leu525) (Homo sapiens (Human), UniProt Q06124). Description: SHP2 inhibition enzymatic assay. It counts as biochemical. The following applies: 0.5 nM SHP-2 activated by 500 nM IRS1 peptide, 75 μM DiFMUP substrate; read-out: SHP2wt-IC50. In a few lines: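 Compounds were preincubated 30 min with 0.5 nM SHP-2 (Met1-Leu525) plus 500 nM IRS1 activating peptide (pH 7.2 HEPES, 5 mM DTT), then 75 μM DiFMUP substrate reacted 30 min at room temperature. After bpV quench, DiFMUP fluorescence gave % inhibition; four-parameter logistic fit yielded IC50.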

Assay [2] deals with ERK phosphorylation in KYSE-520 cells. Description: Phospho-ERK cellular assay. It counts as cell-based. The conditions noted are these: Homo sapiens, KYSE-520, 2 h, KYSE-520 cells, 2 h at 37° C., phospho-ERK1/2 (Thr202/Tyr204) TR-FRET; read-out: PERK IC50. The essentials: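 TR-FRET read-out of ERK1/2 Thr202/Tyr204 phosphorylation was taken after overnight antibody incubation at room temperature. Before that, KYSE-520 cells were treated 2 h at 37 °C with compound dilutions and lysed 30 min. Percent inhibition relative to vehicle and cell-free wells was fitted four-parametrically to give IC50.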
On the technique in general: Time-resolved FRET reads energy transfer from a long-lived donor to a nearby acceptor.

Chain of SHP-2 enzyme (Met1-Leu525) (Q06124 1-525): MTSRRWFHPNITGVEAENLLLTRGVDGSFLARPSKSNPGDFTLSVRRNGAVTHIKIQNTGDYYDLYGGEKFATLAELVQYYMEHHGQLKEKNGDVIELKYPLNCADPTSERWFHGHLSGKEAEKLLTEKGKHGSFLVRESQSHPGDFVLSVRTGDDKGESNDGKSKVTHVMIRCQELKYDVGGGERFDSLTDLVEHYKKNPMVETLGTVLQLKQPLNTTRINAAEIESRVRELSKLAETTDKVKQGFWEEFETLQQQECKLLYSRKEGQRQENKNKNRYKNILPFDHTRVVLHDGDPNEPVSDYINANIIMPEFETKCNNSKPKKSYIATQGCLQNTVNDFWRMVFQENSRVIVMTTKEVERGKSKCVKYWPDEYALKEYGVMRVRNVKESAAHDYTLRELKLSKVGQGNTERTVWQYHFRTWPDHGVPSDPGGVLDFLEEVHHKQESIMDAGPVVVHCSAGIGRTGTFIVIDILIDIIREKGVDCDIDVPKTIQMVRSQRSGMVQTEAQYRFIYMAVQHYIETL

As a reminder, the IC50 is the concentration that inhibits the measured activity by half. For `CN(C#N)C(=O)c1ccc(-c2n[nH]c3nc(N4CC[C@@H]5[C@H](C4)[C@@]5(CN)c4ccccc4F)cnc23)c(Cl)c1` [Example 356, 4-(6-((1S,6R,7R)-7-(aminomethyl)-7-(2-fluorophenyl)-3-azabicyclo[4.1.0]heptan-3-yl)-1H-pyrazolo[3,4-b]pyrazin-3-yl)-3-chloro-N-cyano-N-methylbenzamide], the values for the IC50 in assay [1] and in assay [2] were less than 500 nM and more than 5000 nM, respectively.
The matching figures for `CC(=O)Oc1c(F)cc(-c2n[nH]c3nc(N4CC[C@@H]5[C@H](C4)[C@@]5(CN)c4ccccc4F)cnc23)cc1F` [Example 359, 4-(6-((1S,6R,7R)-7-(aminomethyl)-7-(2-fluorophenyl)-3-azabicyclo[4.1.0]heptan-3-yl)-1H-pyrazolo[3,4-b]pyrazin-3-yl)-2,6-difluorophenyl acetate]: less than 500 nM and less than 1000 nM.
Regarding `NC[C@]1(c2ccccc2F)[C@@H]2CCN(c3cnc4c(-c5ccc(O)c(C(F)(F)F)c5)n[nH]c4n3)C[C@@H]21` [Example 360, 4-(6-((1S,6R,7R)-7-(aminomethyl)-7-(2-fluorophenyl)-3-azabicyclo[4.1.0]heptan-3-yl)-1H-pyrazolo[3,4-b]pyrazin-3-yl)-2-(trifluoromethyl)phenol], the IC50 in assay [1] was less than 500 nM; in assay [2], less than 1000 nM.
For `NC[C@]1(c2ccccc2F)[C@@H]2CCN(c3cnc4c(-c5ccc6nn(CC(F)(F)F)cc6c5Cl)n[nH]c4n3)C[C@@H]21` [Example 361, ((1S,6R,7R)-3-(3-(4-chloro-2-(2,2,2-trifluoroethyl)-2H-indazol-5-yl)-1H-pyrazolo[3,4-b]pyrazin-6-yl)-7-(2-fluorophenyl)-3-azabicyclo[4.1.0]heptan-7-yl)methanamine], in that order: less than 500 nM and less than 1000 nM.
The matching figures for `CN1C(=O)C(F)(F)c2c1ccc(-c1n[nH]c3nc(N4CC[C@@H]5[C@H](C4)[C@@]5(CN)c4ccccc4F)cnc13)c2Cl` [Example 362, 5-(6-((1S,6R,7R)-7-(aminomethyl)-7-(2-fluorophenyl)-3-azabicyclo[4.1.0]heptan-3-yl)-1H-pyrazolo[3,4-b]pyrazin-3-yl)-4-chloro-3,3-difluoro-1-methylindolin-2-one]: less than 500 nM and less than 1000 nM.
For `Cn1cc2ccc(-c3n[nH]c4nc(N5CC[C@@H]6[C@H](C5)[C@@]6(CN)c5ccccc5F)cnc34)c(Cl)c2n1` [Example 363, ((1S,6R,7R)-3-(3-(7-chloro-2-methyl-2H-indazol-6-yl)-1H-pyrazolo[3,4-b]pyrazin-6-yl)-7-(2-fluorophenyl)-3-azabicyclo[4.1.0]heptan-7-yl)methanamine], in that order: less than 500 nM and less than 1000 nM.
In the case of `Cn1ncc2ccc(-c3n[nH]c4nc(N5CC[C@@H]6[C@H](C5)[C@@]6(CN)c5ccccc5F)cnc34)c(Cl)c21` [Example 364, ((1S,6R,7R)-3-(3-(7-chloro-1-methyl-1H-indazol-6-yl)-1H-pyrazolo[3,4-b]pyrazin-6-yl)-7-(2-fluorophenyl)-3-azabicyclo[4.1.0]heptan-7-yl)methanamine], the results for the IC50 in assay [1] and in assay [2] were less than 500 nM and less than 1000 nM, respectively.
The matching figures for `NC[C@]1(c2ccccc2F)[C@@H]2CCN(c3cnc4c(-c5ccc(C(N)=O)cc5F)n[nH]c4n3)C[C@@H]21` [Example 367, 4-(6-((1S,6R,7R)-7-(aminomethyl)-7-(2-fluorophenyl)-3-azabicyclo[4.1.0]heptan-3-yl)-1H-pyrazolo[3,4-b]pyrazin-3-yl)-3-fluorobenzamide]: less than 500 nM and less than 1000 nM.
For `Cc1nc(N)ccc1-c1n[nH]c2nc(N3CC[C@@H]4[C@H](C3)[C@@]4(CN)c3ccccc3F)cnc12` [Example 368, 5-(6-((1S,6R,7R)-7-(aminomethyl)-7-(2-fluorophenyl)-3-azabicyclo[4.1.0]heptan-3-yl)-1H-pyrazolo[3,4-b]pyrazin-3-yl)-6-methylpyridin-2-amine], in that order: less than 500 nM and less than 1000 nM.
As for `Cn1cc2c(Cl)c(-c3n[nH]c4nc(N5CC[C@@H]6[C@H](C5)[C@@]6(CN)c5cc(F)ccc5F)cnc34)ccc2n1` [Example 369, ((1S,6R,7R)-3-(3-(4-chloro-2-methyl-2H-indazol-5-yl)-1H-pyrazolo[3,4-b]pyrazin-6-yl)-7-(2,5-difluorophenyl)-3-azabicyclo[4.1.0]heptan-7-yl)methanamine], the results for the IC50 in assay [1] and in assay [2] were less than 500 nM and less than 1000 nM, respectively.
On to `NC[C@]1(c2ccccc2F)[C@@H]2CCN(c3cnc4c(-c5cc6cc[nH]c(=O)c6cc5Cl)n[nH]c4n3)C[C@@H]21` [Example 370, 6-(6-((1S,6R,7R)-7-(aminomethyl)-7-(2-fluorophenyl)-3-azabicyclo[4.1.0]heptan-3-yl)-1H-pyrazolo[3,4-b]pyrazin-3-yl)-7-chloroisoquinolin-1(2H)-one], for which the values for the half-inhibitory concentration (IC50) in assay [1] and in assay [2] were less than 500 nM and less than 1000 nM, respectively.
Consider `Cc1nn(C)c(C)c1-c1n[nH]c2nc(N3CC[C@@H]4[C@H](C3)[C@@]4(CN)c3ccccc3F)cnc12` [Example 371, ((1S,6R,7R)-7-(2-fluorophenyl)-3-(3-(1,3,5-trimethyl-1H-pyrazol-4-yl)-1H-pyrazolo[3,4-b]pyrazin-6-yl)-3-azabicyclo[4.1.0]heptan-7-yl)methanamine], for which the results for the IC50 in assay [1] and in assay [2] were more than 3000 nM and more than 5000 nM, respectively.
The matching figures for `NC[C@]1(c2ccccc2F)[C@@H]2CCN(c3cnc4c(-c5ccc6c(c5)NC(=O)NC6)n[nH]c4n3)C[C@@H]21` [Example 372, 7-(6-((1S,6R,7R)-7-(aminomethyl)-7-(2-fluorophenyl)-3-azabicyclo[4.1.0]heptan-3-yl)-1H-pyrazolo[3,4-b]pyrazin-3-yl)-3,4-dihydroquinazolin-2(1H)-one]: less than 500 nM and less than 1000 nM.
The matching figures for `NC[C@]1(c2ccccc2F)[C@@H]2CCN(c3cnc4c(-c5ccc6c(c5Cl)C(F)(F)C(=O)N6)n[nH]c4n3)C[C@@H]21` [Example 373, 5-(6-((1S,6R,7R)-7-(aminomethyl)-7-(2-fluorophenyl)-3-azabicyclo[4.1.0]heptan-3-yl)-1H-pyrazolo[3,4-b]pyrazin-3-yl)-4-chloro-3,3-difluoroindolin-2-one]: less than 500 nM and less than 1000 nM.
For `NC[C@]1(c2ccccc2F)[C@@H]2CCN(c3cnc4c(-c5ccc(O)c(F)c5F)n[nH]c4n3)C[C@@H]21` [Example 374, 4-(6-((1S,6R,7R)-7-(aminomethyl)-7-(2-fluorophenyl)-3-azabicyclo[4.1.0]heptan-3-yl)-1H-pyrazolo[3,4-b]pyrazin-3-yl)-2,3-difluorophenol], the figures for the IC50 in assay [1] and in assay [2] were less than 500 nM and less than 1000 nM, respectively.
For `NC[C@]1(c2ccccc2F)[C@@H]2CCN(c3cnc4c(-c5cc6c(cc5Cl)NC(=O)C6=O)n[nH]c4n3)C[C@@H]21` [Example 375, 5-(6-((1S,6R,7R)-7-(aminomethyl)-7-(2-fluorophenyl)-3-azabicyclo[4.1.0]heptan-3-yl)-1H-pyrazolo[3,4-b]pyrazin-3-yl)-6-chloroindoline-2,3-dione], in that order: less than 500 nM and less than 1000 nM.

(Values after patent US20240109900A1, “AZABICYCLIC SHP2 INHIBITORS” (IRBM S.P.A., priority 2021, published 2024).)
